This is an account of results in patent US20240166617A1, “PHOSPHOINOSITIDE 3 KINASE BETA INHIBITORS AND COMPOSITIONS AND METHODS THEREOF” (Geode Therapeutics Inc., priority 2021, published 2024).

The target in one assay is T1, PIK3Cb_h (Homo sapiens, UniProt P42338).
T1 construct: purchased Eurofins DiscoveRx Corporation
The assay can be described thus: Enzyme binding assay (KINOMEscan). The settings on record: Eurofins DiscoveRx. As for the experimental part:
Kinase enzyme binding affinities of compounds disclosed herein were determined using the KINOMEscan technology performed by Eurofins DiscoveRx Corporation, San Diego, California, USA (www.eurofinsdiscoveryservices.com). Table 2 reports the obtained PIK3β Kd values (nM) of, with the PIK3β Kd being the inhibitor binding constant. Table 3 reports the obtained Kd values (nM), with the Kd being the inhibitor binding constant: […]

For assay [1], the system named is phosphorylation of AKT in HCC70 cells. The assay can be described thus: Cellular assay: phosphorylation of AKT in HCC70 cells (western blotting). It is filed as cell-based. Conditions: Homo sapiens, HCC70, 1 h. The gist of the method:
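HCC70 cells treated with compound at 500 nM (0.1% DMSO control) for 60 min at 37 °C; pAKT Ser473 and Thr308 plus total AKT measured by western blot with fluorescent detection. Inhibition from band intensities, binned as + (20–60%), ++ (60–80%), +++ (80–90%), ++++ (>90%).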
For orientation: In western blotting, separated proteins are transferred to a membrane and probed.

The mark [2] stands for this setting: HCC70 cells, compound 500 nM, 60 min, inhibition of Akt activity from band intensities, read-out: Index of AI (HCC70) p-AKT Thr 308.
The mark [3] stands for this setting: HCC70 cells, compound 500 nM, 60 min, inhibition of Akt activity from band intensities, read-out: Index of AI (HCC70) p-AKT ser 473.
[4] abbreviates: read-out: Index of AI (HCC70) p-AKT Thr 308.
[5] abbreviates: read-out: Index of AI (HCC70) p-AKT ser 473.

Read-outs that look alike come from different tables or passages of the source.

T1 sequence (P42338 whole entry): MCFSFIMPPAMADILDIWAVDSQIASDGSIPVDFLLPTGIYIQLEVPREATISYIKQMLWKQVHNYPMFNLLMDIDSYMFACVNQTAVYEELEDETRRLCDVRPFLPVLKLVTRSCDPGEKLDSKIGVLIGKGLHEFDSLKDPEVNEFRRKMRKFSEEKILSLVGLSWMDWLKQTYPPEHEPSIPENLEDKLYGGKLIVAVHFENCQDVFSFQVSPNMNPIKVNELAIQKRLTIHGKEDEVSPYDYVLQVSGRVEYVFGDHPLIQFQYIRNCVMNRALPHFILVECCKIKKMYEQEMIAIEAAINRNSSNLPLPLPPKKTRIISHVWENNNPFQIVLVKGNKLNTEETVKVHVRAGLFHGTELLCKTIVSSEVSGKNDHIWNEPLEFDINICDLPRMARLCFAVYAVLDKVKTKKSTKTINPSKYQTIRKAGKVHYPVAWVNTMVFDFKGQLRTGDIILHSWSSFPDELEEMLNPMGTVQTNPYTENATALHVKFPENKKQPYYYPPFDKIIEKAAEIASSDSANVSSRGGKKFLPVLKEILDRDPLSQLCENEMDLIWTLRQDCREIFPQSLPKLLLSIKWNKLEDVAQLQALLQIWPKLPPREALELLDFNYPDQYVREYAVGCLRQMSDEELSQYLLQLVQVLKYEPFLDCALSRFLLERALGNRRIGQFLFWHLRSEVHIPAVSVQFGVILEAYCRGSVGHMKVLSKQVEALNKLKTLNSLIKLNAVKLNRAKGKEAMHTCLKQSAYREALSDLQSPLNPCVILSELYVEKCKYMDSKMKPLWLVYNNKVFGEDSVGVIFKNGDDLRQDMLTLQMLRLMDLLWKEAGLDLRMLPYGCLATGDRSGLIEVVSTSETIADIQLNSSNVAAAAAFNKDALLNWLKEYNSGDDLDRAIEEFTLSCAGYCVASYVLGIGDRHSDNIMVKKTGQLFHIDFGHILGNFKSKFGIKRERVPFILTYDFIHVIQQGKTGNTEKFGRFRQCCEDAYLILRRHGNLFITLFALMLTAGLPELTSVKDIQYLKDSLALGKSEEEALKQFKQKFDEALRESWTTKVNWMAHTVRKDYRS

`CC(Nc1cc(F)cc(F)c1)c1cc(NC(=O)C2CCCC2)cc2c(=O)cc(N3CCOCC3)oc12` (centres unmarked) [Compound 12, N-(8-(1-((3,5-difluorophenyl)amino)ethyl)-2-morpholino-4-oxo-4H-chromen-6-yl)cyclopentanecarboxamide] gave a Kd at PIK3Cb_h of 0.55 nM. Further, the inhibition at 0.5 µM in assay [1] (setting [2]) and in assay [1] (setting [3]) was above 90% in each case.

Consider `CC(Nc1cc(F)cc(F)c1)c1cc(NS(C)(=O)=O)cc2c(=O)cc(N3CCOCC3)oc12` (centres unmarked) [Compound 13, N-(8-(1-((3,5-difluorophenyl)amino)ethyl)-2-morpholino-4-oxo-4H-chromen-6-yl)methanesulfonamide], for which the affinity at PIK3Cb_h, expressed as Kd, was 0.14 nM. Further, the inhibition at 0.5 µM in assay [1] (setting [2]) and in assay [1] (setting [3]) was 80 to 90% in each case.

Take `CC(Nc1cc(F)cc(F)c1)c1cc(O)cc2c(=O)cc(N3CCOCC3)oc12` (centres unmarked) [Compound 15, 8-(1-((3,5-difluorophenyl)amino)ethyl)-6-hydroxy-2-morpholino-4H-chromen-4-one]: on PIK3Cb_h, the Kd was 0.059 nM. The inhibition at 0.5 µM in assay [1] (setting [2]) and in assay [1] (setting [3]) was above 90% throughout.

On PIK3Cb_h, `CC(Nc1cc(F)cc(F)c1)c1cc(N)cc2c(=O)cc(N3CCOCC3)oc12` (centres unmarked) [Compound 19, 6-amino-8-(1-((3,5-difluorophenyl)amino)ethyl)-2-morpholino-4H-chromen-4-one] came in with a Kd of 0.067 nM. Further, the inhibition at 0.5 µM in assay [1] (setting [2]) and in assay [1] (setting [3]) was above 90% in each case.

On PIK3Cb_h, `COC(=O)Cc1cc(C(C)Nc2cc(F)cc(F)c2)c2oc(N3CCOCC3)cc(=O)c2c1` (centres unmarked) [Compound 25, methyl 2-(8-(1-((3,5-difluorophenyl)amino)ethyl)-2-morpholino-4-oxo-4H-chromen-6-yl)acetate] gave a Kd of 0.21 nM. The inhibition at 0.5 µM in assay [1] (setting [2]) and in assay [1] (setting [3]) was above 90% in each case.

`CC(Nc1cc(F)cc(F)c1)c1cc(C(=O)N2CCC(N(C)C)C2)cc2c(=O)cc(N3CCOCC3)oc12` (centres unmarked) [Compound 27, 8-(1-((3,5-difluorophenyl)amino)ethyl)-6-(3-(dimethylamino)pyrrolidine-1-carbonyl)-2-morpholino-4H-chromen-4-one] registered a Kd at PIK3Cb_h of 0.28 nM. Besides, the inhibition at 0.5 µM in assay [1] (setting [2]) and in assay [1] (setting [3]) was above 90% throughout.

On PIK3Cb_h, `CC(Nc1cc(F)cc(F)c1)c1cc(C(=O)N2CC[C@@H](N(C)C)C2)cc2c(=O)cc(N3CCOCC3)oc12` (stereo partly drawn) [Compound 29, 8-(1-((3,5-difluorophenyl)amino)ethyl)-6-((R)-3-(dimethylamino)pyrrolidine-1-carbonyl)-2-morpholino-4H-chromen-4-one] showed a Kd of 0.17 nM. The inhibition at 0.5 µM in assay [1] (setting [2]) and in assay [1] (setting [3]) was above 90% each time.

As for `CC(Nc1cc(F)cc(F)c1)c1cc(C(=O)N2CC[C@H](N(C)C)C2)cc2c(=O)cc(N3CCOCC3)oc12` (stereo partly drawn) [Compound 30, 8-(1-((3,5-difluorophenyl)amino)ethyl)-6-((S)-3-(dimethylamino)pyrrolidine-1-carbonyl)-2-morpholino-4H-chromen-4-one], the Kd at PIK3Cb_h amounted to 0.32 nM. In addition, the inhibition at 0.5 µM in assay [1] (setting [2]) and in assay [1] (setting [3]) was 80 to 90% throughout.

Turning to `CN(C)C(=O)c1cc(CN2CC(C)(C)c3c(F)cc(F)cc32)c2oc(N3CCOCC3)cc(=O)c2c1` [Compound 34, 8-((4,6-difluoro-3,3-dimethylindolin-1-yl)methyl)-N,N-dimethyl-2-morpholino-4-oxo-4H-chromene-6-carboxamide], the Kd on PIK3Cb_h turned out to be 0.37 nM. Also, the inhibition at 0.5 µM in assay [1] (setting [2]) and in assay [1] (setting [3]) was 80 to 90% throughout.

`CC1Cc2c(F)cc(F)cc2N1C(C)c1cc(C(=O)N(C)C)cc2c(=O)cc(N3CCOCC3)oc12` (centres unmarked) [Compound 38, 8-(1-(4,6-difluoro-2-methylindolin-1-yl)ethyl)-N,N-dimethyl-2-morpholino-4-oxo-4H-chromene-6-carboxamide] registered a Kd at PIK3Cb_h of 0.52 nM. Also, the inhibition at 0.5 µM in assay [1] (setting [2]) and in assay [1] (setting [3]) was above 90% throughout.

Take `CN(C)CCNC(=O)c1cc(CN2CCc3c(F)cc(F)cc32)c2oc(N3CCOCC3)cc(=O)c2c1` [Compound 39, 8-((4,6-difluoroindolin-1-yl)methyl)-N-(2-(dimethylamino)ethyl)-2-morpholino-4-oxo-4H-chromene-6-carboxamide]: on PIK3Cb_h, the Kd came out at 0.072 nM. The inhibition at 0.5 µM in assay [1] (setting [2]) and in assay [1] (setting [3]) was above 90% in each case.

As for `O=C(c1cc(CN2CCc3c(F)cc(F)cc32)c2oc(N3CCOCC3)cc(=O)c2c1)N1CCCC1` [Compound 42, 8-((4,6-difluoroindolin-1-yl)methyl)-2-morpholino-6-(pyrrolidine-1-carbonyl)-4H-chromen-4-one], the Kd on PIK3Cb_h was determined as 0.26 nM. For the same compound, the inhibition at 0.5 µM in assay [1] (setting [2]) and in assay [1] (setting [3]) was above 90% each time.

On to `CN1CCN(C(=O)c2cc(CN3CCc4c(F)cc(F)cc43)c3oc(N4CCOCC4)cc(=O)c3c2)CC1` [Compound 44, 8-((4,6-difluoroindolin-1-yl)methyl)-6-(4-methylpiperazine-1-carbonyl)-2-morpholino-4H-chromen-4-one], for which, on PIK3Cb_h, the affinity, expressed as Kd, was 1.3 nM. For the same compound, the inhibition at 0.5 µM in assay [1] (setting [2]) and in assay [1] (setting [3]) was 80 to 90% in each case.

Regarding `CN(C)C(=O)c1cc(CN2CCc3c(F)cc(F)cc32)c2oc(N3CCO[C@H](CO)C3)cc(=O)c2c1` [Compound 92, (S)-8-((4,6-difluoroindolin-1-yl)methyl)-2-(2-(hydroxymethyl)morpholino)-N,N-dimethyl-4-oxo-4H-chromene-6-carboxamide], the inhibition at 0.5 µM in assay [1] (setting [4]) and in assay [1] (setting [5]) was 60 to 80% throughout.

With `CN(C)C(=O)c1cc(CN2CCc3c(F)cc(F)cc32)c2oc(N3CCO[C@H](CF)C3)cc(=O)c2c1` [Compound 93, (S)-8-((4,6-difluoroindolin-1-yl)methyl)-2-(2-(fluoromethyl)morpholino)-N,N-dimethyl-4-oxo-4H-chromene-6-carboxamide], the inhibition at 0.5 µM in assay [1] (setting [2]) and in assay [1] (setting [3]) was 80 to 90% in each case.

Consider `CC(Nc1ccc(F)c(F)c1)c1cc(C(=O)N2CC[C@@H](N(C)C)C2)cn2c(=O)cc(N3CCOCC3)nc12` (stereo partly drawn) [Compound 94, 9-(1-((3,4-difluorophenyl)amino)ethyl)-7-((R)-3-(dimethylamino)pyrrolidine-1-carbonyl)-2-morpholino-4H-pyrido[1,2-a]pyrimidin-4-one], for which the inhibition at 0.5 µM in assay [1] (setting [4]) and in assay [1] (setting [5]) was 60 to 80% each time.

For `CC(Nc1cccc(F)c1F)c1cc(C(=O)N2CC[C@@H](N(C)C)C2)cn2c(=O)cc(N3CCOCC3)nc12` (stereo partly drawn) [Compound 95, 9-(1-((2,3-difluorophenyl)amino)ethyl)-7-((R)-3-(dimethylamino)pyrrolidine-1-carbonyl)-2-morpholino-4H-pyrido[1,2-a]pyrimidin-4-one], the inhibition at 0.5 µM in assay [1] (setting [4]) and in assay [1] (setting [5]) was 60 to 80% throughout.

In the case of `CC1Cc2c(F)cc(F)cc2N1C(C)c1cc(C(=O)N(C)C)cn2c(=O)cc(N3CCOCC3)nc12` (centres unmarked) [Compound 96, 9-(1-(4,6-difluoro-2-methylindolin-1-yl)ethyl)-N,N-dimethyl-2-morpholino-4-oxo-4H-pyrido[1,2-a]pyrimidine-7-carboxamide], the inhibition at 0.5 µM in assay [1] (setting [2]) and in assay [1] (setting [3]) was above 90% in each case.

In the case of `CC(c1cc(C(=O)N2CC[C@@H](N(C)C)C2)cn2c(=O)cc(N3CCOCC3)nc12)N1CCc2cccc(Cl)c21` (stereo partly drawn) [Compound 97, 9-(1-(7-chloroindolin-1-yl)ethyl)-7-((R)-3-(dimethylamino)pyrrolidine-1-carbonyl)-2-morpholino-4H-pyrido[1,2-a]pyrimidin-4-one], the inhibition at 0.5 µM in assay [1] (setting [2]) and in assay [1] (setting [3]) was 20 to 60% throughout.

Consider `CN(C)C(=O)c1cc(CN2CCc3c(F)cc(F)cc32)c2nc(N3CCOCC3)cc(=O)n2c1` [Compound 98, 9-((4,6-difluoroindolin-1-yl)methyl)-N,N-dimethyl-2-morpholino-4-oxo-4H-pyrido[1,2-a]pyrimidine-7-carboxamide], for which the inhibition at 0.5 µM in assay [1] (setting [2]) and in assay [1] (setting [3]) was 80 to 90% in each case.

Consider `CN(C)C(=O)c1cc(CN2CCc3c(F)ccc(F)c32)c2nc(N3CCOCC3)cc(=O)n2c1` [Compound 99, 9-((4,7-difluoroindolin-1-yl)methyl)-N,N-dimethyl-2-morpholino-4-oxo-4H-pyrido[1,2-a]pyrimidine-7-carboxamide], for which the inhibition at 0.5 µM in assay [1] (setting [2]) and in assay [1] (setting [3]) was 80 to 90% each time.

On to `CN(C)C(=O)c1cc(CN2CCc3c(Cl)ccc(F)c32)c2nc(N3CCOCC3)cc(=O)n2c1` [Compound 100, 9-((4-chloro-7-fluoroindolin-1-yl)methyl)-N,N-dimethyl-2-morpholino-4-oxo-4H-pyrido[1,2-a]pyrimidine-7-carboxamide], for which the inhibition at 0.5 µM in assay [1] (setting [2]) and in assay [1] (setting [3]) was 80 to 90% throughout.

Consider `C[C@@H]1CN(c2cc(=O)n3cc(C(=O)N(C)C)cc(CN4CCc5c(F)cccc54)c3n2)CCO1` [Compound 101, (R)-9-((4-fluoroindolin-1-yl)methyl)-N,N-dimethyl-2-(2-methylmorpholino)-4-oxo-4H-pyrido[1,2-a]pyrimidine-7-carboxamide], for which the inhibition at 0.5 µM in assay [1] (setting [2]) and in assay [1] (setting [3]) was above 90% in each case.

The Kd is the equilibrium constant for the complex coming apart. Low readings indicate higher affinity, high ones lower affinity.
